Laboratory results: the supplement of paper PMC9663587

Assays:
Everolimus = compound: CO[C@H]1C[C@@H]2CC[C@@H](C)[C@@](O)(O2)C(=O)C(=O)N2CCCC[C@H]2C(=O)O[C@H]([C@H](C)C[C@@H]2CC[C@@H](OCCO)[C@H](OC)C2)CC(=O)[C@H](C)/C=C(\C)[C@@H](O)[C@@H](OC)C(=O)[C@H](C)C[C@H](C)/C=C/C=C/C=C/1C [Everolimus]
[1] = compound: COc1cccc(OCCCN)c1-c1cc(Nc2cnc(C#N)cn2)n[nH]1
YKL-5-124 [2] = compound: T1, C=CC(=O)Nc1ccc(C(=O)Nc2[nH]nc3c2CN(C(=O)N[C@H](CN(C)C)c2ccccc2)C3(C)C)cc1 [YKL-5-124]
FMF-03-145-1 = compound: CCC(=O)Nc1ccc(C(=O)Nc2ccc(Nc3ncc4c(n3)N(C)c3ccc(C)cc3C(=O)N4C)cc2)cc1 [FMF-03-145-1]
Pictilisib/GDC0941 = compound: CS(=O)(=O)N1CCN(Cc2cc3nc(-c4cccc5[nH]ncc45)nc(N4CCOCC4)c3s2)CC1 [Pictilisib/GDC0941]; assay: GR value, 72 h; higher = faster growth (1 = untreated, <0 = killing);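 also: breast cancer and non-malignant breast epithelial lines, nine half-log doses, viable cells counted by Hoechst and LIVE/DEAD dye imaging versus time-zero plates and DMSO controls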
BVD523 = compound: CC(C)Nc1cc(-c2c[nH]c(C(=O)N[C@H](CO)c3cccc(Cl)c3)c2)c(Cl)cn1 [BVD523]; assay: as above
[3] = compound: CC(=O)Nc1cccc(-n2c(=O)n(C3CC3)c(=O)c3c(Nc4ccc(I)cc4F)n(C)c(=O)c(C)c32)c1; assay: as above
Vorinostat = compound: O=C(CCCCCCC(=O)Nc1ccccc1)NO [Vorinostat]; assay: as above
ABT-737 = compound: CN(C)CC[C@H](CSc1ccccc1)Nc1ccc(S(=O)(=O)NC(=O)c2ccc(N3CCN(Cc4ccccc4-c4ccc(Cl)cc4)CC3)cc2)cc1[N+](=O)[O-] [ABT-737]; assay: as above
Luminespib/NVP-AUY922 = compound: CCNC(=O)c1noc(-c2cc(C(C)C)c(O)cc2O)c1-c1ccc(CN2CCOCC2)cc1 [Luminespib/NVP-AUY922]; assay: as above
YKL-5-124 [4] = compound: T1, YKL-5-124; assay: increase in dead-cell fraction, 72 h; higher = more death;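 also: breast cancer cell lines in 384-well plates, stained with Hoechst plus LIVE/DEAD far red dye and imaged, cells above an LDR intensity threshold counted dead, Hoechst-negative corpses included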
THZ531 = compound: CN(C)C/C=C/C(=O)Nc1ccc(C(=O)N2CCC[C@@H](Nc3ncc(Cl)c(-c4c[nH]c5ccccc45)n3)C2)cc1 [THZ531]; assay: as above
Topotecan = compound: CC[C@@]1(O)C(=O)OCc2c1cc1n(c2=O)Cc2cc3c(CN(C)C)c(O)ccc3nc2-1 [Topotecan]
Cisplatin = compound: N.N.Cl[Pt]Cl [Cisplatin]
Bleomycin = compound: CC1=C(N=C(N=C1N)[C@H](CC(=O)N)NC[C@@H](C(=O)N)N)C(=O)N[C@@H]([C@H](C2=CN=CN2)OC3C(C(C(C(O3)CO)O)O)OC4C(C(C(C(O4)CO)O)OC(=O)N)O)C(=O)N[C@H](C)[C@H]([C@H](C)C(=O)N[C@@H]([C@@H](C)O)C(=O)NCCC5=NC(=CS5)C6=NC(=CS6)C(=O)NCCC[S+](C)C)O [Bleomycin]; conditions: main component drawn
Etoposide = compound: COc1cc([C@@H]2c3cc4c(cc3[C@@H](O[C@@H]3O[C@@H]5CO[C@@H](C)O[C@H]5[C@H](O)[C@H]3O)[C@H]3COC(=O)[C@H]23)OCO4)cc(OC)c1O [Etoposide]
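For GR50, 72 h in this document: breast cancer and non-malignant breast epithelial cell lines, Deep Dye Drop or Dye Drop imaging, nine half-log doses, GR normalized to time-zero plates and DMSO-only controls.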

AU565
GR50, 72 h (Everolimus): 0.00185 µM
GR50, 72 h [1]: 0.000768 µM
GR50, 72 h (YKL-5-124 [2]): < 0.001 µM
GR50, 72 h (FMF-03-145-1): 0.00474 µM
GR value (Pictilisib/GDC0941; 0.001 µM): 0.964 GR
GR value (Pictilisib/GDC0941; 0.003162 µM): 0.961 GR
GR value (Pictilisib/GDC0941; 0.01 µM): 0.898 GR
GR value (Pictilisib/GDC0941; 0.03162 µM): 0.642 GR
GR value (Pictilisib/GDC0941; 0.1 µM): 0.37 GR
GR value (Pictilisib/GDC0941; 0.3162 µM): 0.101 GR
GR value (Pictilisib/GDC0941; 1 µM): -0.096 GR
GR value (Pictilisib/GDC0941; 3.162 µM): -0.251 GR
GR value (Pictilisib/GDC0941; 10 µM): -0.391 GR
GR value (BVD523; 0.001 µM): 1.17 GR
GR value (BVD523; 0.003162 µM): 0.925 GR
GR value (BVD523; 0.01 µM): 1.04 GR
GR value (BVD523; 0.03162 µM): 0.941 GR
GR value (BVD523; 0.1 µM): 1.06 GR
GR value (BVD523; 0.3162 µM): 0.956 GR
GR value (BVD523; 1 µM): 0.985 GR
GR value (BVD523; 3.162 µM): 0.761 GR
GR value (BVD523; 10 µM): 0.525 GR
GR value ([3]; 0.0001 µM): 1.05 GR
GR value ([3]; 0.0003162 µM): 0.96 GR
GR value ([3]; 0.001 µM): 1.08 GR
GR value ([3]; 0.003162 µM): 1.05 GR
GR value ([3]; 0.01 µM): 1.02 GR
GR value ([3]; 0.03162 µM): 0.968 GR
GR value ([3]; 0.1 µM): 1.08 GR
GR value ([3]; 0.3162 µM): 1.02 GR
GR value ([3]; 1 µM): 1.01 GR
GR value (Vorinostat; 0.001 µM): 0.865 GR
GR value (Vorinostat; 0.003162 µM): 0.936 GR
GR value (Vorinostat; 0.01 µM): 1.02 GR
GR value (Vorinostat; 0.03162 µM): 0.999 GR
GR value (Vorinostat; 0.1 µM): 1.06 GR
GR value (Vorinostat; 0.3162 µM): 0.941 GR
GR value (Vorinostat; 1 µM): 0.551 GR
GR value (Vorinostat; 3.162 µM): -0.345 GR
GR value (Vorinostat; 10 µM): -0.448 GR
GR value (ABT-737; 0.001 µM): 0.926 GR
GR value (ABT-737; 0.003162 µM): 1.05 GR
GR value (ABT-737; 0.01 µM): 1.03 GR
GR value (ABT-737; 0.03162 µM): 1.04 GR
GR value (ABT-737; 0.1 µM): 1.04 GR
GR value (ABT-737; 0.3162 µM): 1.02 GR
GR value (ABT-737; 1 µM): 0.957 GR
GR value (ABT-737; 3.162 µM): 0.86 GR
GR value (ABT-737; 10 µM): 0.279 GR
GR value (Luminespib/NVP-AUY922; 0.0001 µM): 0.887 GR
GR value (Luminespib/NVP-AUY922; 0.0003162 µM): 0.966 GR
GR value (Luminespib/NVP-AUY922; 0.001 µM): 0.942 GR
GR value (Luminespib/NVP-AUY922; 0.003162 µM): 0.648 GR
GR value (Luminespib/NVP-AUY922; 0.01 µM): 0.165 GR
GR value (Luminespib/NVP-AUY922; 0.03162 µM): -0.079 GR
GR value (Luminespib/NVP-AUY922; 0.1 µM): -0.156 GR
GR value (Luminespib/NVP-AUY922; 0.3162 µM): -0.214 GR
GR value (Luminespib/NVP-AUY922; 1 µM): -0.227 GR
increase in dead-cell fraction (YKL-5-124 [4]; 0.001 µM): 0.0305
increase in dead-cell fraction (YKL-5-124 [4]; 0.003162 µM): 0.0489
increase in dead-cell fraction (YKL-5-124 [4]; 0.01 µM): 0.0994
increase in dead-cell fraction (YKL-5-124 [4]; 0.03162 µM): 0.0877
increase in dead-cell fraction (YKL-5-124 [4]; 0.1 µM): 0.0813
increase in dead-cell fraction (YKL-5-124 [4]; 0.3162 µM): 0.114
increase in dead-cell fraction (YKL-5-124 [4]; 1 µM): 0.113
increase in dead-cell fraction (YKL-5-124 [4]; 3.162 µM): 0.215
increase in dead-cell fraction (YKL-5-124 [4]; 10 µM): 0.524
increase in dead-cell fraction (THZ531; 0.0001 µM): 0.0002
increase in dead-cell fraction (THZ531; 0.0003162 µM): 0.0023
increase in dead-cell fraction (THZ531; 0.001 µM): -0.0009
increase in dead-cell fraction (THZ531; 0.003162 µM): 0.0019
increase in dead-cell fraction (THZ531; 0.01 µM): -0.005
increase in dead-cell fraction (THZ531; 0.03162 µM): 0.0372
increase in dead-cell fraction (THZ531; 0.1 µM): 0.133
increase in dead-cell fraction (THZ531; 0.3162 µM): 0.297
increase in dead-cell fraction (THZ531; 1 µM): 0.488

CAL120
GR50, 72 h (Topotecan): 0.00749 µM
GR50, 72 h (Cisplatin): 2.93 µM
GR50, 72 h (Everolimus): > 10 µM
GR50, 72 h (Bleomycin): 1.69 µM
GR50, 72 h [1]: 0.000952 µM
GR50, 72 h (YKL-5-124 [2]): 0.00898 µM
GR50, 72 h (Etoposide): 0.48 µM
GR50, 72 h (FMF-03-145-1): 0.00643 µM
increase in dead-cell fraction (YKL-5-124 [4]; 0.001 µM): 0.0168
increase in dead-cell fraction (YKL-5-124 [4]; 0.003162 µM): 0.0283
increase in dead-cell fraction (YKL-5-124 [4]; 0.01 µM): 0.0348
increase in dead-cell fraction (YKL-5-124 [4]; 0.03162 µM): 0.0304
increase in dead-cell fraction (YKL-5-124 [4]; 0.1 µM): 0.0343
increase in dead-cell fraction (YKL-5-124 [4]; 0.3162 µM): 0.0427
increase in dead-cell fraction (YKL-5-124 [4]; 1 µM): 0.0333
increase in dead-cell fraction (YKL-5-124 [4]; 3.162 µM): 0.0461
increase in dead-cell fraction (YKL-5-124 [4]; 10 µM): 0.0476
increase in dead-cell fraction (THZ531; 0.0001 µM): 0.0032
increase in dead-cell fraction (THZ531; 0.0003162 µM): -0.0012
increase in dead-cell fraction (THZ531; 0.001 µM): -0.0004
increase in dead-cell fraction (THZ531; 0.003162 µM): -0.0009
increase in dead-cell fraction (THZ531; 0.01 µM): -0.0022
increase in dead-cell fraction (THZ531; 0.03162 µM): 0.0046
increase in dead-cell fraction (THZ531; 0.1 µM): 0.0275
increase in dead-cell fraction (THZ531; 0.3162 µM): 0.0465
increase in dead-cell fraction (THZ531; 1 µM): 0.0403

HCC1395
GR50, 72 h (Topotecan): 0.00275 µM
GR50, 72 h (Cisplatin): 0.491 µM
GR50, 72 h (Everolimus): 0.00256 µM
GR50, 72 h (Bleomycin): 0.104 µM
GR50, 72 h [1]: 0.000487 µM
GR50, 72 h (YKL-5-124 [2]): 0.00123 µM
GR50, 72 h (Etoposide): 0.42 µM
GR50, 72 h (FMF-03-145-1): 0.00474 µM
increase in dead-cell fraction (YKL-5-124 [4]; 0.001 µM): 0.0251
increase in dead-cell fraction (YKL-5-124 [4]; 0.003162 µM): 0.0285
increase in dead-cell fraction (YKL-5-124 [4]; 0.01 µM): 0.0648
increase in dead-cell fraction (YKL-5-124 [4]; 0.03162 µM): 0.0466
increase in dead-cell fraction (YKL-5-124 [4]; 0.1 µM): 0.0638
increase in dead-cell fraction (YKL-5-124 [4]; 0.3162 µM): 0.0762
increase in dead-cell fraction (YKL-5-124 [4]; 1 µM): 0.0835
increase in dead-cell fraction (YKL-5-124 [4]; 3.162 µM): 0.0876
increase in dead-cell fraction (YKL-5-124 [4]; 10 µM): 0.152
increase in dead-cell fraction (THZ531; 0.0001 µM): 0.0083
increase in dead-cell fraction (THZ531; 0.0003162 µM): -0.0121
increase in dead-cell fraction (THZ531; 0.001 µM): 0.0071
increase in dead-cell fraction (THZ531; 0.003162 µM): 0.0027
increase in dead-cell fraction (THZ531; 0.01 µM): -0.0161
increase in dead-cell fraction (THZ531; 0.03162 µM): -0.0019
increase in dead-cell fraction (THZ531; 0.1 µM): 0.0618
increase in dead-cell fraction (THZ531; 0.3162 µM): 0.113
increase in dead-cell fraction (THZ531; 1 µM): 0.242
